Drawing on ChEMBL document CHEMBL1133237, “Enhanced binding of aminoglycoside dimers to a "dimerized" A-site 16S rRNA construct” (Bioorg Med Chem Lett, 2000), this text covers Kd for five compounds.

For experiment [1], the target named is Nucleic Acid. The experiment is described as follows: Dissociation constant towards 16S rRNA construct A. The format is nucleic-acid assay.
Experiment [2] has as its target Nucleic Acid. The experiment is described as follows: Dissociation constant towards 16S rRNA construct B. The format is nucleic-acid assay.

pKd: −log10 of the molar value.

Take `NC[C@H]1O[C@H](O[C@H]2[C@H](O)[C@@H](O[C@H]3O[C@H](CSCCOCCSSCCOCCSC[C@H]4O[C@H](O[C@@H]5[C@@H](O)[C@H](O[C@H]6O[C@H](CN)[C@@H](O)C[C@H]6N)[C@@H](N)C[C@H]5N)[C@H](O)[C@@H](N)[C@@H]4O)[C@@H](O)[C@H](N)[C@H]3O)[C@H](N)C[C@@H]2N)[C@H](N)C[C@@H]1O` [Tobramycin-Tobramycin]: the pKd (in general, −log10 of the Kd, conventionally taken in molar units) at Nucleic Acid [1] is 5.75; on Nucleic Acid [2], 5.74.

In the case of `NC[C@H]1O[C@H](O[C@H]2[C@H](O)[C@@H](O[C@H]3O[C@H](CO)[C@@H](O)[C@H](N)[C@H]3O)[C@H](N)C[C@@H]2N)[C@H](N)C[C@@H]1O` [TOBRAMYCIN], the pKd is 5.68 at Nucleic Acid [1] and 5.77 on Nucleic Acid [2].

For `NCC1O[C@H](O[C@H]2[C@@H](O)[C@H](O[C@H]3[C@H](O)[C@@H](N)C[C@@H](N)[C@@H]3O[C@H]3O[C@H](CN)[C@@H](O)[C@H](O)[C@H]3N)O[C@@H]2CSCCOCCSSCCOCCSC[C@H]2O[C@@H](O[C@H]3[C@H](O)[C@@H](N)C[C@@H](N)[C@@H]3O[C@H]3O[C@H](CN)[C@@H](O)[C@H](O)[C@H]3N)[C@H](O)[C@@H]2O[C@@H]2OC(CN)[C@H](O)[C@@H](O)[C@@H]2N)[C@H](N)[C@@H](O)[C@@H]1O` (stereo not given in full), the pKd is 6.49 on Nucleic Acid [1] and 7.70 at Nucleic Acid [2].

For the compound `NC[C@@H]1O[C@H](O[C@H]2[C@@H](O)[C@H](O[C@@H]3[C@@H](O)[C@H](N)C[C@H](N)[C@H]3O[C@H]3O[C@H](CN)[C@@H](O)[C@H](O)[C@H]3N)O[C@@H]2CO)[C@H](N)[C@@H](O)[C@@H]1O` [FRAMYCETIN], the pKd at Nucleic Acid [1] was 6.36; at Nucleic Acid [2], 6.42.

Turning to `NCC1O[C@H](O[C@H]2[C@@H](O)[C@H](O[C@H]3[C@H](O)[C@@H](N)C[C@@H](N)[C@@H]3O[C@H]3O[C@H](CN)[C@@H](O)[C@H](O)[C@H]3N)O[C@@H]2CSCCOCCSSCCOCCSC[C@H]2O[C@H](O[C@@H]3[C@@H](O)[C@H](O[C@H]4O[C@H](CN)[C@@H](O)C[C@H]4N)[C@@H](N)C[C@H]3N)[C@H](O)[C@@H](N)[C@@H]2O)[C@H](N)[C@@H](O)[C@@H]1O` (stereo not given in full), the pKd at Nucleic Acid [1] was 6.39; at Nucleic Acid [2] it was 6.54.
